Source: patent US5512574A, “Quinuclidine and azabicyclo 2.2.1! heptane pyrazinyl ethers as muscarinic agonists” (American Home Products Corporation, priority 1995, dated 1996)
Where two headings read alike, the source gives them in different places.

Legend:
m2 muscarinic receptor [1] = target: T1, m2 muscarinic receptor (Homo sapiens, UniProt P08172); test: biochemical; type: binding
T1 sequence (P08172 1-466): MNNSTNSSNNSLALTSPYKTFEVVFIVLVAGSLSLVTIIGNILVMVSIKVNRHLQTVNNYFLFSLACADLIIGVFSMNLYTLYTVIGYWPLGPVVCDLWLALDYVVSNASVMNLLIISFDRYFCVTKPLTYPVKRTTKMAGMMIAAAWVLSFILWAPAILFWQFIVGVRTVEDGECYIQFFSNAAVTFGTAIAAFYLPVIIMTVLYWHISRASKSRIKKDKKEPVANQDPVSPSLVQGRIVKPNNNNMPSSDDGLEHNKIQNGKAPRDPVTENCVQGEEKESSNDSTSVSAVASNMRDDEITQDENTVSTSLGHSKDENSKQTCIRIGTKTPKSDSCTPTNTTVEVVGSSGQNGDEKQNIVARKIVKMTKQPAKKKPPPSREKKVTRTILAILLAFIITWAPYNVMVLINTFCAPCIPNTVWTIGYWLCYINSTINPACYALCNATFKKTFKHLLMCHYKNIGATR

m1 muscarinic receptor [2] = target: T2, m1 muscarinic receptor (Homo sapiens, UniProt P11229); test: biochemical; type: binding
T2 sequence (P11229 1-460): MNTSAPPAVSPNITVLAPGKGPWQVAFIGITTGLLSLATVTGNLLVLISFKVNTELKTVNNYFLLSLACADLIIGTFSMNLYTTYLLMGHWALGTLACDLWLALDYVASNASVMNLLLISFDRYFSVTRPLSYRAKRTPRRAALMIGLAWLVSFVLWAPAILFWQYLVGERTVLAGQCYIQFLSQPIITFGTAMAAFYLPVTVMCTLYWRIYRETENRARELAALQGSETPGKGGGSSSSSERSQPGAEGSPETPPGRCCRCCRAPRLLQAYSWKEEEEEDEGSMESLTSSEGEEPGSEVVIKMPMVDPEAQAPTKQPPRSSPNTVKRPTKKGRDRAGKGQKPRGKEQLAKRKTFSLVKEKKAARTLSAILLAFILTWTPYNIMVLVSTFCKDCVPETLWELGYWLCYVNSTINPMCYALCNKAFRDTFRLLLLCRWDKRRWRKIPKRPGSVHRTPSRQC

[3] = target: T3, M1 acetylcholine receptors (Homo sapiens, UniProt P11229); test: stimulation of phosphoinositide (PI) hydrolysis in CHO cells expressing M1 acetylcholine receptors; type: cell-based; conditions: for Emax: CHO, 1 h; for EC50: read-out: m1 agonism [P.I.] EC50; for m1 CHO @ 30 × Ki % Carbachol / m1 CHO % Carbachol (at Ki): PI hydrolysis, 60 min; for m1 CHO @ 30 × Ki % Carbachol: at 30 × Ki
T3 sequence (P11229 1-460): T2 sequence (P11229 1-460)
Procedure: (§1) The tubes are incubated for one hour at 37° C. The reaction is quenched with chloroform and the phosphatidyl inositols are extracted with methanol and chloroform. Phase separation is assured with the addition of methanol and water followed by centrifugation. The tritiated inositol phosphates are recovered on BioRad AG 1-X8 anion exchange resin in the formate cycle. After washing the resin with water and myo-inositol, the inositol phosphates are eluted with ammonium formate/formic acid, collected and subjected to liquid scintillation spectroscopy.
(§2) Cloned human receptors in CHO cells were used in these studies.

m1 muscarinic receptor [4] = target: m1 muscarinic receptor (Homo sapiens, UniProt P11229); test: biochemical; type: binding; remark: listed apart in the source
[5] = target: M1 acetylcholine receptors (Homo sapiens, UniProt P11229); test: stimulation of phosphoinositide (PI) hydrolysis in CHO cells expressing M1 acetylcholine receptors; type: cell-based
Procedure: as §1, §2

m2 muscarinic receptor [6] = target: T1, m2 muscarinic receptor; test: m2 agonism (cAMP) / functional selectivity; type: cell-based; conditions: for EC50: cAMP, m2; for Functional Selectivity-m2/m1: ratio of m2 (cAMP) EC50 to m1 (PI) EC50
From the text: Such diseases include presenile and senile dementia (also known as Alzheimer's Disease and Senile Dementia of the Alzheimer Type, respectively), Huntington's Chorea, Tardive Dyskinesia, Hyperkinesia, Mania and Tourette's Syndrome. Alzheimer's Disease is a slowly progressive neurological disorder characterized by deficits in cognitive function including memory, attention, language and visual perception capabilities.
as §2

[7] = read-out: [3H]QNB Binding Ki(μM) m2
[8] = m1, cloned human receptors in CHO cells, read-out: [3H]QNB Binding Ki(μM) m1
[9] = read-out: m1 CHO @ 30 × Ki % Carbachol, PI hydrolysis, m1 CHO, at 30 × Ki, percentage of mean carbachol value
[10] = m2, cloned human receptors in CHO cells, read-out: [3H]QNB Binding Ki(μM) m2
[11] = read-out: m1 CHO % Carbachol (at Ki), PI hydrolysis, m1 CHO, at Ki, percentage of mean carbachol value
[12] = read-out: m1 CHO @ 30 × Ki % Carbachol
[13] = percentage of mean carbachol value
[14] = read-out: m1 CHO % Carbachol (at Ki)

Structure (SMILES): CCCCCCOc1nccnc1O[C@H]1CN2CC[C@@H]1C2 (relative stereo) [Example 1, (±)-(endo)-3-(3-Hexyloxy-pyrazin-2-yloxy)-1-aza-bicyclo 2.2.1!heptane]
- Ki (m2 muscarinic receptor [1]; [7]): 0.02 µM
- Ki (m1 muscarinic receptor [2]; [8]): 0.03 µM
- Emax [3, 9]: 102%

Structure (SMILES): CCCCCCSc1nccnc1O[C@H]1CN2CC[C@@H]1C2 (relative stereo) [Example 2, (endo)-3-(3-Hexylsulfanyl-pyrazin-2-yloxy)-1-aza-bicyclo 2.2.1!heptane]
- Ki (m2 muscarinic receptor [1]; [10]): 0.013 µM
- Ki (m1 muscarinic receptor [2]; [8]): 0.0067 µM
- Emax [3, 9]: 97.1%

Structure (SMILES): CCCCCCSc1nccnc1O[C@@H]1CN2CC[C@@H]1C2 (relative stereo) [Example 6, (exo)-3-(3-Hexylsulfanyl-pyrazin-2-yloxy)-1-azabicyclo 2.2.1!heptane]
- Ki (m2 muscarinic receptor [1]; [10]): 0.088 µM
- Ki (m1 muscarinic receptor [2]; [8]): 0.123 µM
- Emax [3, 11]: 104%

Structure (SMILES): CCCCCCOc1nccnc1S[C@@H]1CN2CC[C@@H]1C2 (relative stereo) [Example 11, (exo)-3-(3-Hexyloxy-pyrazin-2-ylsulfanyl)-1-azabicyclo 2.2.1!heptane]
- Ki (m1 muscarinic receptor [2]; [8]): 0.292 µM
- Emax [3, 11]: 41.6%

Structure (SMILES): CCCCCCSc1nccnc1S[C@@H]1CN2CC[C@@H]1C2 (relative stereo) [Example 12, (exo)-3-(3-Hexylsulfanyl-pyrazin-2-ylsulfanyl)-1-azabicyclo-2.2.1!heptane]
- Ki (m2 muscarinic receptor [1]; [7]): 0.064 µM
- Ki (m1 muscarinic receptor [2]; read-out: [3H]QNB Binding Ki(μM) m1): 0.03 µM
- Emax [3, 12]: 62%

Structure (SMILES): CCCCCCOc1nccnc1O[C@H]1CN2CC[C@@H]1C2 (single isomer, unassigned)
- Ki (m1 muscarinic receptor [4]): 32 nM
- EC50 [5]: 5.5 nM

Structure (SMILES): CCCCCCSc1nccnc1O[C@H]1CN2CC[C@@H]1C2 (single isomer, unassigned) [2(+), (+)-(endo)-3-(3-hexylsulfanyl-pyrazin-2-yloxy)-1-aza-bicyclo 2.2.1!heptane]
- Ki (m2 muscarinic receptor [1]; [10]): 0.063 µM
- Ki (m1 muscarinic receptor [2]; [8]): 0.027 µM
- Emax [3, 9]: 31.1%

Structure (SMILES): CCCCCCSc1nccnc1O[C@H]1CN2CC[C@@H]1C2 (single isomer, unassigned) [Example 2(-), (-)-(endo)-3-(3-hexylsulfanyl-pyrazin-2-yloxy)-1-aza-bicyclo 2.2.1!heptane]
- Ki (m2 muscarinic receptor [1]; [10]): 0.0045 µM
- Emax [3, 11]: 46.5%
- EC50 [3]: 0.4 nM
- EC50 (m2 muscarinic receptor [6]): 16 nM
- Functional Selectivity-m2/m1 (m2 muscarinic receptor [6]): 40

Structure (SMILES): CCCCCCOc1nccnc1O[C@H]1CN2CC[C@@H]1C2 (single isomer, unassigned) [Example 4]
- Ki (m2 muscarinic receptor [1]; [7]): 0.024 µM

Structure (SMILES): CCCCCCOc1nccnc1O[C@H]1CN2CC[C@@H]1C2 (single isomer, unassigned) [Example 5, (+)-endo-3-(3-Hexyloxy-pyrazin-2-yloxy)-1-azabicyclo 2.2.1!heptane]
- Ki (m2 muscarinic receptor [1]; [7]): 0.071 µM
- Ki (m1 muscarinic receptor [2]; [8]): 0.083 µM
- m1 CHO @ 30 × Ki % Carbachol [3, 13]: 51%

Structure (SMILES): CCCCCCSc1nccnc1O[C@@H]1CN2CC[C@@H]1C2 (single isomer, unassigned) [Example 7, (+)-exo-3-(3-Hexylsulfanyl-pyrazin-2-yloxy)-1-azabicyclo 2.2.1!heptane]
- Ki (m2 muscarinic receptor [1]; [10]): 0.059 µM
- m1 CHO % Carbachol (at Ki) [3, 13]: 107.3%
- EC50 [3]: 10.3 nM
- EC50 (m2 muscarinic receptor [6]): 2400 nM
- Functional Selectivity-m2/m1 (m2 muscarinic receptor [6]): 240

Structure (SMILES): CCCCCCSc1nccnc1O[C@@H]1CN2CC[C@@H]1C2 (single isomer, unassigned) [Example 8, (-)-(exo)-3-(3-Hexylsulfanyl-pyrazin-2-yloxy)-1-azabicyclo 2.2.1!heptane]
- Ki (m2 muscarinic receptor [1]; [10]): 0.008 µM
- m1 CHO % Carbachol (at Ki) [3, 13]: 44.2%

Structure (SMILES): CCCCCCOc1nccnc1O[C@@H]1CN2CC[C@@H]1C2 (single isomer, unassigned) [Example 9, (-)-(exo)-3-(3-Hexyloxy-pyrazin-2-yloxy)-1-azabicyclo 2.2.1!heptane]
- Ki (m2 muscarinic receptor [1]; [7]): 0.774 µM
- m1 CHO @ 30 × Ki % Carbachol [3, 13]: 56%

Structure (SMILES): CCCCCCOc1nccnc1O[C@@H]1CN2CC[C@@H]1C2 (single isomer, unassigned) [Example 10, (+)-(exo)-3-(3-Hexyloxy-pyrazin-2-yloxy)-1-azabicyclo 2.2.1!heptane]
- Ki (m2 muscarinic receptor [1]; [7]): 0.149 µM
- m1 CHO @ 30 × Ki % Carbachol [3, 13]: 9%

Structure (SMILES): CCCCCCSc1nccnc1SC1CN2CCC1CC2 (stereo not shown) [Example 13, 3-(3-Hexylsulfanyl-pyrazin-2-ylsulfanyl)-1-azabicyclo 2.2.2!octane]
- Ki (m1 muscarinic receptor [2]): 0.029 µM
- Emax [3, 12]: 45.9%

Structure (SMILES): CCCCCCOc1nccnc1SC1CN2CCC1CC2 (stereo not shown) [Example 14, 3-(3-Hexyloxy-pyrazin-2-ylsulfanyl)-1-azabicyclo 2.2.2!octane]
- Ki (m1 muscarinic receptor [2]): 0.076 µM
- Emax [3, 14]: 29.5%

Structure (SMILES): CCCCCCOc1nccnc1OC1CN2CCC1CC2 (stereo not shown) [Example 15]
- Ki (m2 muscarinic receptor [1]; [3H]QNB Binding Ki(μM) m2, m2, cloned human receptors in CHO cells): 0.124 µM
- Ki (m1 muscarinic receptor [2]): 0.14 µM
- Emax [3, 14]: 59.6%
